Square brackets hold non-standard residues; d marks the D form. Peptide text beside a SMILES is read from it.
Experiments:
small α-syn PFF seeds = assay: Time-dependent DLS of small α-syn PFF seeds disassembly; format: biochemical; parameters: rate constant of PFF disassembly: unit not given here; conditions: 200 nM PFF + 500 nM SVD-1a
Description: Fig. 4 SVD-1a disassembles small α-syn PFF seeds into α-syn monomers. Small α-syn PFF seeds were prepared as described previously. […] A and B Time-dependent DLS measurements with 200 nM small α-syn PFF seeds in the absence (A) and presence (B) of 500 nM SVD-1a. 1 ml sample was continuously measured in a sealed quartz cuvette at 37 °C under quiescent conditions every 60 s for 72 h in a SpectroSize 300 instrument (XtalConcepts, GE). Data are shown as a radius plot where the signal amplitude of each particle size is represented by the data point diameter. C One-phase exponential decay fit of “200 nM PFF + 500 nM SVD-1a” shown in (B). Fit was performed for particles in the range of 1–100 nm with an amplitude > 0.2. Outliers were excluded from fitting using a Q value of 1%. […] Fitting was performed using the “One phase exponential decay” fitting function from GraphPad Prism 10 (GraphPad Software Inc., USA). […] D For AFM analysis, small α-syn PFF seeds pretreated with or without 400 and 1600 nM SVD-1a were incubated and dried on a freshly cleaved mica surface, followed by washing with ddH2O and drying using a gentle stream of N2. Analysis was performed using the NanoWizard 3 system (J-1100, JPK BioAFM, USA), recording multiple surface sections. The sections shown are representative of the observed species and particle density identified on all surface sections. E Exemplary Western blot of small α-syn PFF samples incubated with SVD-1a. 200 nM small α-syn PFFs (monomer equivalent) were incubated with increasing concentrations of SVD-1a for 72 h at 37 °C. PFF and monomer samples that were incubated without SVD-1a served as controls. α-Syn was detected with the antibody Syn211. A prominent α-syn monomer band was present at the expected molecular weight. Below the monomer bands, no further bands were visible. In the upper part of the blot, above the marker range, PFFs were detected, using a longer exposure time due to a weaker signal (see Supplementary Fig. 11 for the whole blot image with different exposure times). F Size-based fractionation by centrifugal concentration followed by ELISA quantification. 200 nM small α-syn PFF (monomer equivalent) were incubated with or without SVD-1a together with a 200 nM monomer control for 72 h at 37 °C. After incubation, the samples were fractioned using a 100 kDa MWCO centrifugal concentrator (Merck, Microcon DNA Fast Flow 100 MWCO). α-Syn content of flow through (red) and retentate (blue) was quantified using an α-syn specific ELISA (BioLegend, Human α-Synuclein (Colorimetric), 448607). Shown are the fractions of the retentate and flow through as a percentage of the total concentration identified for each sample. A linear regression line (blue or red dotted lines) was included for the SVD-1a-treated samples (left) to underline the concentration dependency of the SVD-1a treatment effect. The fractions identified for the α-syn monomer control sample are shown as a bar graph (right). […] Data are shown as mean values with ±SD (n = 3).
small α-syn PFF seeds were prepared as described previously with some modifications. […] The monomer equivalent concentration was determined by measuring the α-syn concentration in the supernatant after the first centrifugation and subtracting it from the start concentration for fibrilization. […]

small α-syn PFF = assay: 100 kDa MWCO size-based fractionation of small α-syn PFF followed by ELISA; format: biochemical, Human; conditions: 200 nM PFF, 72 h, 37 °C, n = 3
Description: Fig. 4 SVD-1a disassembles small α-syn PFF seeds into α-syn monomers. Small α-syn PFF seeds were prepared as described previously. […] A and B Time-dependent DLS measurements with 200 nM small α-syn PFF seeds in the absence (A) and presence (B) of 500 nM SVD-1a. 1 ml sample was continuously measured in a sealed quartz cuvette at 37 °C under quiescent conditions every 60 s for 72 h in a SpectroSize 300 instrument (XtalConcepts, GE). Data are shown as a radius plot where the signal amplitude of each particle size is represented by the data point diameter. C One-phase exponential decay fit of “200 nM PFF + 500 nM SVD-1a” shown in (B). […] PFF and monomer samples that were incubated without SVD-1a served as controls. α-Syn was detected with the antibody Syn211. […] In the upper part of the blot, above the marker range, PFFs were detected, using a longer exposure time due to a weaker signal (see Supplementary Fig. 11 for the whole blot image with different exposure times). F Size-based fractionation by centrifugal concentration followed by ELISA quantification. […] After incubation, the samples were fractioned using a 100 kDa MWCO centrifugal concentrator (Merck, Microcon DNA Fast Flow 100 MWCO). α-Syn content of flow through (red) and retentate (blue) was quantified using an α-syn specific ELISA (BioLegend, Human α-Synuclein (Colorimetric), 448607). […]

[1] = one-phase exponential decay, 37 °C

Structure (SMILES): CC[C@@H](C)[C@@H](NC(=O)[C@@H](Cc1c[nH]cn1)NC(=O)[C@@H](CCC(=O)O)NC(=O)[C@@H](CCC(N)=O)NC(=O)[C@@H](Cc1c[nH]c2ccccc12)NC(=O)[C@@H](Cc1ccc(O)cc1)NC(=O)[C@H](NC(=O)[C@@H](CCC(=O)O)NC(=O)[C@@H](Cc1c[nH]cn1)NC(=O)[C@H](NC(=O)[C@H]1CCCN1C(=O)[C@@H](CC(C)C)NC(=O)[C@H](N)CCCNC(=N)N)[C@H](C)O)[C@H](C)O)C(=O)N[C@H](Cc1c[nH]c2ccccc12)C(=O)N[C@H](Cc1c[nH]cn1)C(=O)N[C@H](C)C(=O)N[C@H](CCCNC(=N)N)C(=O)N[C@H](CCCNC(=N)N)C(=O)N[C@H](CCCNC(=N)N)C(=O)N[C@H](CCCNC(=N)N)C(=O)N[C@H](CCCNC(=N)N)C(N)=O [SVD-1a] (H-[dR][dL][dP][dT][dH][dE][dT][dY][dW][dQ][dE][dH][dI][dW][dH][dA][dR][dR][dR][dR][dR]-NH2)
- radius of monomeric α-syn formed (small α-syn PFF seeds; 37 °C, 72 h): ~ 1.6 nm
- span of one-phase exponential decay (small α-syn PFF seeds; PBS pH 7.4, 37 °C, 72 h, particles 1–100 nm, amplitude > 0.2): 23.38 nm
- radius of small α-syn PFF seeds eliminated (small α-syn PFF seeds; no change (26 nm) without SVD-1a): ~ 26 nm
- half-life of PFF disassembly (small α-syn PFF seeds; [1]): 5.2 h
- rate constant of PFF disassembly (small α-syn PFF seeds; [1]): 0.132
- α-syn fraction in retentate / eluate (small α-syn PFF; increasing SVD-1a, 100 kDa MWCO, ELISA): concentration-dependent decrease of the α-syn fraction in the retentate—corresponding to small α-syn PFF—and an increase in the eluate
- α-syn distribution vs monomer control (small α-syn PFF; 1000 nM SVD-1a): shows the same distribution as the monomer control

— publication PMC12454639, “Direct disassembly of α-syn preformed fibrils into α-syn monomers by an all-D-peptide” (NPJ Parkinson's Disease, 2025)
